Source: patent US10322180B2, “Pharmaceutical composition comprising modified hemoglobin-based therapeutic agent for cancer targeting treatment and diagnostic imaging” (Vision Global Holdings Ltd., priority 2013, dated 2019)

Test system: Liver cancer cells, HepG2
Assay: Live cell imaging uptake, liver cancer cells
Assay type: cell-based, human
Settings: FIG. 23A-23C
Experimental: Cancer cells (e.g. HepG2 liver cancer cells) are seeded onto glass bottom microwell dishes (MatTek Corporation). Live cells at defined zooms (63×, 20×) are acquired using Zeiss Observer Z1 widefield microscope, equipped with atmospheric/temperature-controlled chamber and motorized stage for multi-positional acquisition. The incubation is performed in an enclosed live cell imaging system purged with 0.1% 02 and 5% CO2 (premixed). Cells are exposed to (1) Hb-5FU-alkyl(non-cleavable)-FL conjugate, labeled with one fluorescent dye and (2) Hb-5Fu-Dan-TAM conjugate, labeled with two fluorescent dyes; for 15 min prior to the acquisition of images every 3 min for a period of 2 h. Images are deconvolved and compacted into time-lapse movies using the MetaMorph software (Molecular Device).

## fluorescent labeled hemoglobin: hemoglobin linked to one or more molecules of fluorescein (fluorescein 6-carboxysuccinimidyl ester, F-6-NHS)
  entry into liver cancer cells (fluorescent signal under microscope): can also enter into the cancer cells
Listed as fluorescent labeled modified hemoglobin
  entry into liver cancer cells (fluorescent signal under microscope): can enter into liver cancer cells successfully
